In patent US20080261955A1, “Use of Pharmaceutical Compositions of Lofepramine for the Treatment of Adhd, Cfs, Fm and Depression” (priority 2004, published 2008):
Read-outs that look alike come from different tables or passages of the source.

Tests used:
ECG interval = conditions: rats infused with the antidepressant; cited from earlier work
ADHD [1] = conditions: cited from earlier work
ADHD [2] = test: Two large well-controlled studies of atomoxetine, CAARS scores; type: in vivo, human; conditions: overall
Text: In the second study, these improvements were 30.1% vs. 19.6%, respectively. Overall these two studies have indicated a placebo response of about 20% and difference between active and placebo of about 10%. Moreover, atomoxetine is not a stimulant, a point that provides an effective marketing tool for this drug.

[3] = desipramine treatment; cited from earlier work
[4] = test system: ADD (as defined in DSM III); conditions: 31 patients treated with 4.6 mg/kg, children and adolescents; cited from earlier work
[5] = fatal poisoning / overdose; cited from earlier work
hyperactivity (ADHD) = conditions: doses as low as 75 mg/day; cited from earlier work
ADHD [6] = test: Example 2: lofepramine versus placebo in adult patients with ADHD (CAARS); type: in vivo, human; conditions: 20 adult patients, oral 140 to 280 mg/day, 3 months
Method: A study was carried out to access the efficacy of lofepramine compared to placebo in 20 adult patients with ADHD at a single study centre. Active treatment was for 3 months. Patients with DSM-IV diagnosis of ADHD were recruited. Patients were assessed using the patient-rated Connors Adult ADH Rating Scales (CAARS). Initially, there was a single blind placebo period between day 0 and week 3, and patients who responded to placebo were withdrawn. Oral administration of lofepramine (140 mg/day) was commenced from week 3 onwards. Patients showing little response to this dose and tolerable side effects were titrated upwards to 210 mg/day and then to 280 mg/day.

Sedation = conditions: in vivo
[7] = test system: noradrenaline reuptake versus serotonin (5HT) reuptake; test: NA:5HT relative potencies based on Ki data (Bolden-Watson and Richelson); type: biochemical; conditions: basis not stated
Text: The selectivity a drug for various receptors may be compared by use of comparative Ki's and not comparative IC 50 values. (Bolden-Watson, C and Richelson, E., Life Sci, (52), 1993, 1023-1029), which is hereby incorporated by reference.

[8] = test system: serotonin synthesis in the brain; test: Serotonin synthesis in the brain
dopamine D2 receptor = dopamine D2 receptor (Homo sapiens, UniProt P14416); test: Activity at the dopamine D2 receptor
[9] = test system: Hypothalamic-Pituitary-Adrenal axis; test: HPA axis activity in CFS; type: in vivo, human; conditions: along with symptomatic relief
Text: While not being bound by any one mechanisms of action, previous work by one of the co-inventors here, has supported the evidence that there is Hypothalamic-Pituitary-Adrenal axis under activity in CFS patients. (Scott […] and […]; Acta Psychiatr Scand 1998 June 97: 450-7).

Chronic Fatigue Syndrome = test: Example 3: lofepramine in Chronic Fatigue Syndrome patients, cross-over design; type: in vivo, human; conditions: 44 patients, doses up to 210 mg/day over 26 weeks
Method: Forty-four patients meeting the criteria for Chronic Fatigue Syndrome were recruited in a cross-over design. […] Patients were administered lofepramine at doses up to 210 mg/day over the 26 weeks of the study. Patients were assessed using the FibroFatigue Scale (interview scale) and the CDR battery of cognitive tests (computer based assessment of cognition). Other assessments included HADS and Clinical Global Improvement (CGI). Four CDR assessments and 9 Fibrofatigue assessments were carried out.

DSM-IV ADHD = test: Example 1: case reports of ADHD patients on lofepramine; type: in vivo, human; conditions: for behaviour: child; for general behaviour and concentration: person
Method: Patient is a person with a diagnosis of DSM-IV ADHD. Their education was severely impacted by an inability to sustain attention for any length of time and they were also very disruptive in class. Their inability to sustain attention was causing difficulty at work. They were referred by their primary care physician. They were commenced on lofepramine 70 mg twice daily. […] The dose of lofepramine was increased to 70 mg three times daily. […] Within 48 hours their concentration deteriorated and they were once again in trouble at work. A week later the medication was recommenced and they have now remained well for approximately 4 months. They are performing effectively at work and their parents are happy with the situation. A child had been on methylphenidate for 2 years which was prescribed for ADHD characterised by poor concentration and impulsive behaviour. They stopped taking the medication and deteriorated. When they attended the clinic they were commenced on lofepramine 70 mg twice daily. […] This has been sustained for 4 months.

[10] = toxic levels similar to that found in the SSRI's

dopamine D2 receptor, sequence (P14416 whole entry, species assumed): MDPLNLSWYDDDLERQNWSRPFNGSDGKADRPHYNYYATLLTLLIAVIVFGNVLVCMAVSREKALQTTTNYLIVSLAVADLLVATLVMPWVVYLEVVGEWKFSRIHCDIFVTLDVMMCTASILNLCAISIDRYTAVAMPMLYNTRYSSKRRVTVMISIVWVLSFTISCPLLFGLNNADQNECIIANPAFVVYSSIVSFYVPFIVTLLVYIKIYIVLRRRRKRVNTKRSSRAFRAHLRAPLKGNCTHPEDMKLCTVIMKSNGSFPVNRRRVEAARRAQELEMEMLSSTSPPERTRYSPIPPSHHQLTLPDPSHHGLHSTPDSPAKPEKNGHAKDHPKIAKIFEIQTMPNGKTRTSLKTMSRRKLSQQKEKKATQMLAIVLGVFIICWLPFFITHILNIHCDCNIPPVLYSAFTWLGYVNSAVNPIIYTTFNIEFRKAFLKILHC

CN(C)CCC=C1c2ccccc2CCc2ccccc21 [amitriptyline]
effect on ECG interval (ECG interval): prolong the ECG interval

CNCC[C@@H](Oc1ccccc1C)c1ccccc1 [atomoxetine]
mean reduction of CAARS scores (ADHD [1]; first study, placebo 18.1%): 28.3%
mean reduction of CAARS scores (ADHD [1]; second study, placebo 19.6%): 30.1%
difference between active and placebo in reduction of CAARS scores (ADHD [2]): about 10%

CNCCCN1c2ccccc2CCc2ccccc21 [desipramine]
diastolic blood pressure, heart rate and ECG conductance [3]: asymptomatic and generally small increases
patients with a significant response [4]: around 70%
fatalities per million prescriptions [5]: 200.9 per million prescriptions
effect on ECG interval (ECG interval): prolong the ECG interval

CN(C)CCCN1c2ccccc2CCc2ccccc21 [imipramine]
time to begin to reduce hyperactivity (hyperactivity (ADHD)): 3 to 10 days
effect on ECG interval (ECG interval): prolong the ECG interval

CN(CCCN1c2ccccc2CCc2ccccc21)CC(=O)c1ccc(Cl)cc1 [lofepramine]
CAARS scores versus placebo (ADHD [6]): significant benefit over placebo
sedation (Sedation): does not induce sedation
NA:5HT ratio relative to that of desipramine [7]: about four
NE:5-HT ratio compared with milnacipran [7]: higher than that of milnacipran
serotonin synthesis in the brain [8]: up-regulate serotonin synthesis in the brain
activity at the D2 receptor (dopamine D2 receptor): potent activity
HPA activity [9]: induces upregulation of HPA activity
fatalities per million prescriptions [5]: 1.3 per million prescriptions
FibroFatigue Scale, CDR cognitive tests, HADS and CGI (Chronic Fatigue Syndrome): significant improvement on all scales
behaviour (DSM-IV ADHD; 70 mg three times daily, sustained for 4 months): major improvement
behaviour (DSM-IV ADHD; 70 mg twice daily): No immediate improvement
side-effects (DSM-IV ADHD; patient report): no side-effects
general behaviour and concentration (DSM-IV ADHD; 70 mg three times daily, sustained for 3 months): continued improvement
general behaviour and concentration (DSM-IV ADHD; 70 mg twice daily, after 1 week): significant improvement
cardiotoxicity [10]: very low cardiotoxicity
effect on ECG interval (ECG interval): does not

COc1ccc(C(CN(C)C)C2(O)CCCCC2)cc1 (stereo not drawn) [venlafaxine]
fatalities per million prescriptions [5]: 13.2 per million prescriptions
